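Method: 48-hour compound exposure of cells in 96-well plates, five concentrations, linear interpolation of endpoints. TGI denotes the concentration required for complete inhibition of growth.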
Assays:
Assay in all cases: DTP human tumour cell line panel, 48 h
[1] = tested on: HCT-116 colon
[2] = tested on: MOLT-4 leukemia
[3] = tested on: M14 melanoma
[4] = tested on: CAKI-1 renal
[5] = tested on: KM12 colon
[6] = tested on: SK-OV-3 ovarian
[7] = tested on: M19-MEL melanoma
[8] = tested on: SK-MEL-2 melanoma
[9] = tested on: XF 498 CNS
[10] = tested on: HCC-2998 colon
[11] = tested on: DLD-1 colon
[12] = tested on: 786-0 renal
[13] = tested on: ACHN renal
[14] = tested on: U251 CNS
[15] = tested on: HCT-15 colon
[16] = tested on: UACC-257 melanoma
[17] = tested on: EKVX NSCLC
[18] = tested on: SR leukemia
[19] = tested on: DMS 273 small cell lung
[20] = tested on: UACC-62 melanoma
[21] = tested on: RXF-631 renal
[22] = tested on: SNB-19 CNS
[23] = tested on: OVCAR-8 ovarian
[24] = tested on: SF-295 CNS
[25] = tested on: NCI-H23 lung
[26] = tested on: LXFL 529 NSCLC
[27] = tested on: RXF 393 renal
[28] = tested on: CCRF-CEM leukemia
[29] = tested on: OVCAR-4 ovarian
[30] = tested on: SF-539 CNS
[31] = tested on: SW-620 colon
[32] = tested on: K-562 leukemia
[33] = tested on: HOP-62 NSCLC
[34] = tested on: TK-10 renal
[35] = tested on: NCI-H226 lung
[36] = tested on: OVCAR-3 ovarian
[37] = tested on: SF-268 CNS
[38] = tested on: DMS 114 small cell lung
[39] = tested on: SN12C renal
[40] = tested on: HL-60(TB) leukemia
[41] = tested on: UO-31 renal
[42] = tested on: KM20L2 colon
[43] = tested on: MALME-3M melanoma
[44] = tested on: IGROV1 ovarian
[45] = tested on: LOX IMVI melanoma
[46] = tested on: SK-MEL-28 melanoma
[47] = tested on: NCI-H460 lung
[48] = tested on: A549 NSCLC
[49] = tested on: NCI-H522 lung
[50] = tested on: OVCAR-5 ovarian
[51] = tested on: COLO 205 colon
[52] = tested on: HT29 colon
[53] = tested on: SNB-75 CNS
[54] = tested on: HOP-92 NSCLC
[55] = tested on: SK-MEL-5 melanoma
[56] = tested on: RPMI-8226 leukemia
[57] = tested on: SNB-78 CNS
[58] = tested on: A498 renal

Cc1nc(-c2nc(C)c(C(=O)/C=C/c3ccc(N(C)C)cc3)s2)sc1C(=O)/C=C/c1ccc(N(C)C)cc1
TGI [1]: > 100 µM | TGI [2]: > 100 µM | TGI [3]: > 100 µM | TGI [4]: > 100 µM | TGI [5]: > 100 µM | TGI [6]: > 100 µM | TGI [7]: > 100 µM | TGI [8]: > 100 µM | TGI [9]: 44.6 µM | TGI [10]: > 100 µM | TGI [11]: > 100 µM | TGI [12]: > 100 µM | TGI [13]: > 100 µM | TGI [14]: > 100 µM | TGI [15]: > 100 µM | TGI [16]: > 100 µM | TGI [17]: > 100 µM | TGI [18]: > 100 µM | TGI [19]: > 100 µM | TGI [20]: 58 µM | TGI [21]: > 100 µM | TGI [22]: > 100 µM | TGI [23]: > 100 µM | TGI [24]: > 100 µM | TGI [25]: > 100 µM | TGI [26]: > 100 µM | TGI [27]: > 100 µM | TGI [28]: > 100 µM | TGI [29]: > 100 µM | TGI [30]: > 100 µM | TGI [31]: > 100 µM | TGI [32]: > 100 µM | TGI [33]: > 100 µM | TGI [34]: > 100 µM | TGI [35]: > 100 µM | TGI [36]: > 100 µM | TGI [37]: > 100 µM | TGI [38]: > 100 µM | TGI [39]: > 100 µM | TGI [40]: > 100 µM | TGI [41]: > 100 µM | TGI [42]: > 100 µM | TGI [43]: > 100 µM | TGI [44]: > 100 µM | TGI [45]: > 100 µM | TGI [46]: > 100 µM | TGI [47]: > 100 µM | TGI [48]: > 100 µM | TGI [49]: 89.2 µM | TGI [50]: > 100 µM | TGI [51]: > 100 µM

CN(O)C(=O)c1ccccc1
TGI [1]: > 100 µM | TGI [2]: > 100 µM | TGI [3]: > 100 µM | TGI [52]: > 100 µM | TGI [4]: > 100 µM | TGI [5]: > 100 µM | TGI [6]: > 100 µM | TGI [53]: > 100 µM | TGI [7]: > 100 µM | TGI [9]: > 100 µM | TGI [10]: > 100 µM | TGI [11]: > 100 µM | TGI [12]: > 100 µM | TGI [13]: > 100 µM | TGI [14]: > 100 µM | TGI [16]: > 100 µM | TGI [18]: > 100 µM | TGI [19]: > 100 µM | TGI [20]: > 100 µM | TGI [21]: > 100 µM | TGI [22]: > 100 µM | TGI [23]: > 100 µM | TGI [24]: > 100 µM | TGI [25]: > 100 µM | TGI [26]: > 100 µM | TGI [27]: > 100 µM | TGI [28]: > 100 µM | TGI [29]: > 100 µM | TGI [30]: > 100 µM | TGI [31]: > 100 µM | TGI [32]: > 100 µM | TGI [33]: > 100 µM | TGI [34]: > 100 µM | TGI [35]: > 100 µM | TGI [36]: > 100 µM | TGI [54]: > 100 µM | TGI [37]: > 100 µM | TGI [55]: > 100 µM | TGI [38]: > 100 µM | TGI [39]: > 100 µM | TGI [40]: > 100 µM | TGI [41]: > 100 µM | TGI [42]: > 100 µM | TGI [43]: > 100 µM | TGI [44]: > 100 µM | TGI [45]: > 100 µM | TGI [46]: > 100 µM | TGI [56]: > 100 µM | TGI [47]: > 100 µM | TGI [48]: > 100 µM | TGI [49]: > 100 µM | TGI [50]: > 100 µM | TGI [51]: > 100 µM

C/C(CC(=O)Nc1ccccc1[N+](=O)[O-])=N\NC(N)=O
TGI [1]: > 100 µM | TGI [2]: > 100 µM | TGI [3]: > 100 µM | TGI [52]: > 100 µM | TGI [5]: > 100 µM | TGI [6]: > 100 µM | TGI [53]: > 100 µM | TGI [7]: > 100 µM | TGI [8]: > 100 µM | TGI [9]: > 100 µM | TGI [10]: > 100 µM | TGI [11]: > 100 µM | TGI [12]: > 100 µM | TGI [13]: > 100 µM | TGI [14]: > 100 µM | TGI [57]: > 100 µM | TGI [16]: > 100 µM | TGI [17]: > 100 µM | TGI [20]: > 100 µM | TGI [21]: > 100 µM | TGI [23]: > 100 µM | TGI [24]: > 100 µM | TGI [25]: > 100 µM | TGI [26]: > 100 µM | TGI [27]: > 100 µM | TGI [28]: > 100 µM | TGI [30]: > 100 µM | TGI [31]: > 100 µM | TGI [32]: > 100 µM | TGI [33]: > 100 µM | TGI [34]: > 100 µM | TGI [35]: > 100 µM | TGI [36]: > 100 µM | TGI [54]: > 100 µM | TGI [37]: > 100 µM | TGI [55]: > 100 µM | TGI [38]: > 100 µM | TGI [40]: > 100 µM | TGI [41]: > 100 µM | TGI [42]: > 100 µM | TGI [43]: > 100 µM | TGI [44]: > 100 µM | TGI [45]: > 100 µM | TGI [46]: > 100 µM | TGI [56]: > 100 µM | TGI [47]: > 100 µM | TGI [48]: > 100 µM | TGI [49]: > 100 µM | TGI [50]: > 100 µM | TGI [51]: > 100 µM

O=C(c1ccccc1)N1C2C3CC(OCc4ccccc4)(OCc4ccccc4)C(O3)C21 (configuration not stated)
TGI [1]: > 100 µM | TGI [58]: > 100 µM | TGI [2]: > 100 µM | TGI [3]: > 100 µM | TGI [4]: > 100 µM | TGI [6]: > 100 µM | TGI [53]: > 100 µM | TGI [7]: > 100 µM | TGI [8]: > 100 µM | TGI [9]: > 100 µM | TGI [10]: > 100 µM | TGI [11]: > 100 µM | TGI [12]: > 100 µM | TGI [13]: > 100 µM | TGI [14]: > 100 µM | TGI [15]: > 100 µM | TGI [57]: > 100 µM | TGI [17]: > 100 µM | TGI [20]: > 100 µM | TGI [21]: > 100 µM | TGI [22]: > 100 µM | TGI [23]: > 100 µM | TGI [25]: > 100 µM | TGI [26]: > 100 µM | TGI [27]: > 100 µM | TGI [28]: > 100 µM | TGI [29]: > 100 µM | TGI [30]: > 100 µM | TGI [31]: > 100 µM | TGI [32]: > 100 µM | TGI [33]: > 100 µM | TGI [34]: > 100 µM | TGI [35]: > 100 µM | TGI [54]: > 100 µM | TGI [37]: > 100 µM | TGI [55]: > 100 µM | TGI [38]: > 100 µM | TGI [39]: > 100 µM | TGI [40]: > 100 µM | TGI [41]: > 100 µM | TGI [42]: > 100 µM | TGI [43]: > 100 µM | TGI [44]: > 100 µM | TGI [45]: > 100 µM | TGI [46]: > 100 µM | TGI [56]: > 100 µM | TGI [47]: > 100 µM | TGI [48]: > 100 µM | TGI [49]: > 100 µM | TGI [50]: > 100 µM | TGI [51]: > 100 µM

CC1CC(c2ccc(Cl)cc2)=Nc2ccccc2S1 (configuration not stated)
TGI [1]: > 100 µM | TGI [58]: > 100 µM | TGI [2]: > 100 µM | TGI [3]: > 100 µM | TGI [52]: > 100 µM | TGI [5]: > 100 µM | TGI [6]: > 100 µM | TGI [53]: > 100 µM | TGI [7]: > 100 µM | TGI [8]: > 100 µM | TGI [10]: > 100 µM | TGI [11]: > 100 µM | TGI [12]: > 100 µM | TGI [13]: > 100 µM | TGI [14]: > 100 µM | TGI [15]: > 100 µM | TGI [57]: > 100 µM | TGI [16]: > 100 µM | TGI [17]: > 100 µM | TGI [18]: > 100 µM | TGI [20]: > 100 µM | TGI [21]: > 100 µM | TGI [22]: > 100 µM | TGI [23]: > 100 µM | TGI [24]: > 100 µM | TGI [25]: > 100 µM | TGI [26]: > 100 µM | TGI [27]: > 100 µM | TGI [28]: > 100 µM | TGI [29]: > 100 µM | TGI [30]: > 100 µM | TGI [31]: > 100 µM | TGI [32]: > 100 µM | TGI [33]: > 100 µM | TGI [34]: > 100 µM | TGI [35]: > 100 µM | TGI [36]: > 100 µM | TGI [37]: > 100 µM | TGI [38]: > 100 µM | TGI [39]: > 100 µM | TGI [40]: > 100 µM | TGI [41]: > 100 µM | TGI [42]: > 100 µM | TGI [43]: > 100 µM | TGI [44]: > 100 µM | TGI [46]: > 100 µM | TGI [56]: > 100 µM | TGI [47]: > 100 µM | TGI [48]: > 100 µM | TGI [49]: > 100 µM | TGI [50]: > 100 µM | TGI [51]: > 100 µM
